Here are results for eight compounds from article PMC11249017 (Journal of Medicinal Chemistry, 2024).

“Also recorded” adds a separate entry of the source. Marks after values point to notes of the source that are not given here.

The test system of one data set is ML-2 cells. Briefly: IP-One assay in AML cells. The data set is classed as cell-based. Conditions: 90 minutes stimulation.
Data set [1] in a line: Metabolic stability in rat liver microsomes. To be noted: Sprague–Dawley rat liver microsomes. On the technique in general: Microsomes from liver hold many membrane-bound enzymes, among them those of drug oxidation.
The next data set relates to Molm-13 cells. Briefly: IP-One assay in AML cells. Format: cell-based. To be noted: 90 minutes stimulation.
A further data set in a line: Aqueous solubility. Conditions: PBS with 1% DMSO, pH 7.4, aqueous solubility, PBS buffer.
A further data set addresses GPR1 (Homo sapiens, UniProt P46091). The data set is classed as cell-based. To be noted: 60 μM, no endogenous ligand applied.
Data set [2] in a line: Pharmacokinetics in male C57Bl/6N mice.
Data set [3] concerns the target T1, human G2A (Homo sapiens, UniProt Q9UNW8).
T1 sequence (Q9UNW8 1-380): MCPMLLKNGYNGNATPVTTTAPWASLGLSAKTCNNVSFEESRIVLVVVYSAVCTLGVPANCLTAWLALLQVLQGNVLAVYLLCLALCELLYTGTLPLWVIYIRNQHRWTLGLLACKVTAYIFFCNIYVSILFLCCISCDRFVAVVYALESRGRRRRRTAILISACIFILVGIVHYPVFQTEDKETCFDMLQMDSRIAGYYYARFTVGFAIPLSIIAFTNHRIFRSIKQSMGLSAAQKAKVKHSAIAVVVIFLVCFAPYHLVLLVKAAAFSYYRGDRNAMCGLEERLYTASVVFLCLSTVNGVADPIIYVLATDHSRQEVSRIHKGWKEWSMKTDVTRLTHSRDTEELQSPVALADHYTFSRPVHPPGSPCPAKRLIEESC
To be noted: ratio of EC50 values.

The test system of the next data set is G2A. To be noted: weak antagonist of G2A; cited from earlier work.
The test system of data set [4] is capsaicin-induced TRPV1 responses in mouse primary sensory neurons. Briefly: Calcium-imaging-based TRPV1 sensitization assay. The data set is classed as cell-based.
The target in data set [5] is human G2A (Homo sapiens, UniProt Q9UNW8). Conditions: compared with T-10418; 15 min after addition.
Target sequence in this assay (P32121 whole entry partner, one chain of several): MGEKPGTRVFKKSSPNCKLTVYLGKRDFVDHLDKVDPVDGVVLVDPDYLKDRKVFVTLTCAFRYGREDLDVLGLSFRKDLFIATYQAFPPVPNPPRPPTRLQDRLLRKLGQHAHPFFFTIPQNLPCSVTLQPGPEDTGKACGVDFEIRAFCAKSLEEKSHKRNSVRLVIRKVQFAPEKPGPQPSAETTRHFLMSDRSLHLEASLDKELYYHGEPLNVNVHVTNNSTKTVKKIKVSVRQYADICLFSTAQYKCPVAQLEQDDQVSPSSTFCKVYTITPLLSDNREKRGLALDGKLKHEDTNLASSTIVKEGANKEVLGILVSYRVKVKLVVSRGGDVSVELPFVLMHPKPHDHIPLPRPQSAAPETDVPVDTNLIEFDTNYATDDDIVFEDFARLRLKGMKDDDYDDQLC
Data set [6] has as its system CHO-K1 cells overexpressing only GNA11 but not G2A. To be noted: control cells without G2A; ONC compounds at ≥ 30 μM.
In data set [7] the test system is Molm-13. Description: Apoptosis assay AnnexinV/7-AAD. The data set is classed as cell-based. Conditions: 30 μM, 24 h.
The test system of data set [8] is ML-2. Briefly: Cell viability. The data set is classed as cell-based. Conditions: 30 μM, 72 h.
Data set [9] relates to ML-2. Description: Apoptosis assay AnnexinV/7-AAD. The data set is classed as cell-based. Conditions: 30 μM, 24 h.
In data set [10] the test system is Molm-13. Briefly: Cell viability. The data set is classed as cell-based. To be noted: 30 μM, 72 h.

Sequence of GPR1 (P46091 whole entry): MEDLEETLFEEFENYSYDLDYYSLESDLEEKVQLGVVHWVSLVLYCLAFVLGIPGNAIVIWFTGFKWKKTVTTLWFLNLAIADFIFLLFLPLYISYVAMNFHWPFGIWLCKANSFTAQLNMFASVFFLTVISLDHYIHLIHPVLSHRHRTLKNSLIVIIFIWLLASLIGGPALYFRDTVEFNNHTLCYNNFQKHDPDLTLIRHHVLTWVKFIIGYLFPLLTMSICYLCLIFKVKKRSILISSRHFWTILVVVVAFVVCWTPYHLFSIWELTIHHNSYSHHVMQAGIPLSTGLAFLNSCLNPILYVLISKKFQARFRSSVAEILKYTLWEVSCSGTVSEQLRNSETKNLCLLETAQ
Sequence of GPR1 (P32121 whole entry partner): as the sequence (P32121 whole entry partner, one chain of several) above

Broadly, the solubility is the concentration that dissolves in the medium under given conditions. A lower solubility goes with a poorly soluble substance. Consider `O=C(N[C@H](Cc1ccccc1)C(=O)O)c1cccc(OCc2cccnc2)c1` [Compound 3, (R)-3-Phenyl-2-(3-(pyridin-3-ylmethoxy)benzamido)propanoic Acid], for which the “activation of the Gq pathway (IP-1)” value in the data set with ML-2 cells and in the data set on Molm-13 cells was “could not detect any activation of the Gq pathway” each time. The “rat liver microsomes (remaining after 60 min)” value in [1] is listed as 98% ^c. This compound also registered a solubility in “Aqueous solubility” greater than 3000 µM. The “partial agonism, share of maximal βarr2 recruitment observed with C9” value on GPR1 is given as “approximately 50%”. In addition, the CL in data set [2] (10 mg/kg sc) turned out to be 140.8 mL/min/kg. Moreover, in data set [2] (iv or sc in PBS), the “behavior and clinical signs after dosing” value is on record as “no clinical signs observed”. Besides, the “times more active than the (S) distomer 2” value on human G2A [3] is reported as “more than 30 times”.

For orientation: IC50 means the concentration needed to halve the response being measured. On to lysophosphatidylcholine [LPC], for which the half-inhibitory concentration (IC50) in the data set on G2A was greater than 10 µM.

Turning to `COc1ccc(-c2cc(C(=O)N[C@@H](Cc3ccccc3)C(=O)NC3CCCCC3)ccc2O)cc1` [Compound 56, (S)-N-(1-(Cyclohexylamino)-1-oxo-3-phenylpropan-2-yl)-6-hydroxy-4′-methoxy-[1,1′-biphenyl]-3-carboxamide], the “effect on TRPV1 sensitization by T-10418 (100 nM) and 9-HODE (400 nM)” value in [4] (cotreatment with 10 μM antagonist) is “completely abolished”.

In the case of `CCCCC/C=C\C=C\C(O)CCCCCCCC(=O)O` (centres unmarked) [9-HODE], the “activation of the Gq pathway (IP-1)” value in the data set with ML-2 cells and with Molm-13 cells was “could not detect any activation of the Gq pathway” throughout. For the same compound, on human G2A [5], the βarr2 recruitment response result is “unable to stimulate the same degree of β-arrestin recruitment”. For the same compound, in data set [6], the “increase in IP-1 not mediated by the receptor” value is “not been observed”.

Take `O=C1C2=C(CCN(Cc3ccccc3)C2)N2CCN=C2N1Cc1ccc(C(F)(F)F)cc1` [ONC212]: the “activation of the Gq pathway (IP-1)” value in the data set with ML-2 cells and in the data set on Molm-13 cells was “could not detect any activation of the Gq pathway” in each case. Also, in data set [6], the “increase in IP-1 not mediated by the receptor” value was “substantial increase in IP-1”.

On to `CCCCC/C=C\C=C\[C@H](O)CCCCCCCC(=O)O` [9(R)-HODE], for which the βarr2 recruitment response entry on human G2A [5] is “did not result in any observable NanoLuc complementation”.

For `O=C(NC(Cc1ccccc1)C(=O)O)c1cccc(OCc2cccnc2)c1` (centres unmarked) [Compound 1], in data set [4] (1 μM compound, 2 min, capsaicin 100 nM 30 s), the “sensitization of capsaicin-induced TRPV1 responses” value is recorded as “potently sensitize for capsaicin-induced TRPV1 responses; also recorded: comparable to that observed with 200 nM (±)9-HODE”.

As for `Cc1ccccc1CN1C(=O)C2=C(CCN(Cc3ccccc3)C2)N2CCN=C12` [ONC201], the induction of apoptosis entry in the data set on Molm-13 [7] and in the data set with ML-2 [9] was “induction of apoptosis could be confirmed” in each case. In addition, the viable cells result in the data set on ML-2 [8] and in the data set with Molm-13 [10] was “strong reduction in viable” throughout.
